Test results reported in patent US4575509A, “Water-soluble formulations of m-AMSA with pyroglutamic acid” (Bristol-Myers Company, priority 1984, dated 1986).
Where a name gives a salt, the structure may show the parent alone. Read-outs that look alike come from different tables or passages of the source.

Key:
animal tumor systems = details: Cain et al. 1974; cited from earlier work
[1] = initial results; cited from earlier work
[2] = literature references / prior art, cited from earlier work
physchem [3] = assay type: physicochemical; details: water
Description: DL-Pyroglutamic acid (130 mg) was dispersed in 20 ml of acetone to form a solution. To this solution there was added 400 mg of m-AMSA free base. The mixture was stirred and 10 ml of methyl alcohol added drop by drop. Upon agitation, a yellow solid gradually precipitated. The precipitate was collected, washed twice with acetone and dried in vacuo to give the title salt having a melting point of 156°-158° C. and an aqueous solubility at room temperature of about 10 mg/ml.
m-AMSA base (400 mg) was suspended in 30 ml of dried acetone. With gentle stirring, a solution was obtained by gradually adding a solution of 260 mg of DL-pyroglutamic acid in 15 ml of methanol to the above suspension. Two 10 ml portions of dried methanol were added to the solution to precipitate the dipyroglutamate salt. The salt was isolated by filtration, washed with methanol and dried in a vacuum dessicator. The yield of dipyroglutamate salt was about 600 mg; mp 145°-148° C.

[4] = Solubility test in sterile water for injection (saturated filtrate, HPLC, m-AMSA base content); assay type: physicochemical; details: 0.22μ filtrate, HPLC assay within one hour after reconstitution
Description: To determine the relative solubilities of the pyroglutamate salts and compositions of the present invention and the prior art m-AMSA methanesulfonate salt, the following solubility test was carried out.
The following formulations were tested: […]
The formulations were prepared as follows: […]
(1) The m-AMSA methanesulfonate salt was prepared by slurrying 1 g of m-AMSA base in 125 ml of acetone for 20 minutes. The resulting near solution was vacuum filtered to remove undissolved solids. The solids remaining in the filter were washed with 10 ml of acetone and the wash solution was added to the original filtrate. To the above solution of m-AMSA base there was added with rapid stirring 0.24 ml of methanesulfonic acid over a three minute interval. Crystals formed and the mixture was stirred five additional minutes. The crystals were then vacuum filtered, washed with two 20 ml portions of acetone and vacuum dried at 50° C. for 24 hours to give 1.18 g of m-AMSA methanesulfonate (1:1) salt.
(2) The composition containing m-AMSA base and methanesulfonic acid (1:2 ratio) was prepared by adding 1 equivalent of methanesulfonic acid to the 1:1 m-AMSA methanesulfonate salt prepared above.
(3) The 1:1 m-AMSA pyroglutamate salt was prepared as described in Example 1.
(4) The 1:2 m-AMSA pyroglutamate salt was prepared as described in Example 2.
To carry out the solubility test, accurately weighed amounts of the above-described formulations were added into accurately measure amounts of sterile water for injection and the mixture was shaken by Vortex® mixer for 5 minutes to yield a complete solution. The procedure was continued until no more material dissolved in the solution. The saturated solutions were then passed through a 0.22μ Millipore® filter. The resultant clear filtrates were sampled and assayed via HPLC assay within one hour after reconstitution. Solubility was measured as the m-AMSA base content in the filtrate.

[5] = penicillin G, ampicillin, cephalothin etc.; U.S. Pat. No. 3,920,814; cited from earlier work
physchem [6] = assay type: physicochemical; details: water, found by the present inventors, read-out: aqueous solubility

COc1cc(NS(C)(=O)=O)ccc1Nc1c2ccccc2nc2ccccc12 [m-AMSA]
antitumor activity (animal tumor systems): significant antitumor activity | clinical evaluation [1]: very promising initial results | solubility in water (words) [2]: very limited solubility in water

COc1cc(NS(C)(=O)=O)ccc1Nc1c2ccccc2nc2ccccc12 [Example 1, m-AMSA Mono DL-Pyroglutamate Salt]
solubility (physchem [3]; room temperature, read-out: aqueous solubility): ~10000 µg/mL | Solubility (mg/ml m-AMSA base) ([4]; listed as m-AMSA pyroglutamate salt (1:1)): 12.5 mg/ml m-AMSA base

O=C1CCC(C(=O)O)N1 (stereo not drawn) [pyroglutamic acid, 2-pyrrolidone-5-carboxylic acid]
effect on antibiotics [5]: potentiate the intrinsic activity and blood levels of certain antibiotics

COc1cc(NS(C)(=O)=O)ccc1Nc1c2ccccc2nc2ccccc12 [m-AMSA methanesulfonate salt (1:1), m-AMSA methanesulfonate salt]
solubility (physchem [6]): ~90 µg/mL | Solubility (mg/ml m-AMSA base) ([4]; methanesulfonate salt): 0.090 mg/ml m-AMSA base | solubility in water (words) ([2]; listed as monomethanesulfonate salt of m-AMSA, methanesulfonate salt): sufficiently soluble for experimental small animal (mice) antitumor studies | solubility in water (words) ([2]; listed as monomethanesulfonate, methanesulfonate salt): insufficiently water-soluble for practical dosage forms | solubility in water (words) ([2]; methanesulfonate salt): only slightly soluble in water

COc1cc(NS(C)(=O)=O)ccc1Nc1c2ccccc2nc2ccccc12 [monohydrochloride]
solubility in water (words) [2]: insufficiently water-soluble for practical dosage forms | solubility in water (words) ([2]; listed as hydrochloride): only slightly soluble in water

COc1cc(NS(C)(=O)=O)ccc1Nc1c2ccccc2nc2ccccc12 [Example 2, m-AMSA Di DL-Pyroglutamate Salt]
solubility (physchem [3]; m-AMSA base content by HPLC, read-out: aqueous solubility (m-AMSA base content as determined by HPLC)): 13100 µg/mL | Solubility (mg/ml m-AMSA base) ([4]; listed as m-AMSA pyroglutamate salt (1:2)): 13.1 mg/ml m-AMSA base
